From patent US9809586B2, “Inhibitors of collagen prolyl 4-hydroxylase” (WISCONSIN ALUMNI RESEARCH FOUNDATION, priority 2015, dated 2017)

Assays:
[1] = biological target: T1, human CP4H1 (Homo sapiens, UniProt P13674); assay: Assay of human CP4H1 activity in the presence of inhibitors; format: biochemical; details: 10 μM compound, 50 μM FeSO4
T1 construct: made in house; host or cells: Origami B(DE3) Escherichia coli
Procedure: The catalytic activity of human CP4H1 was assayed as described previously.^35 Briefly, activity assays were carried out at 30° C. in 100 μL Tris-HCl buffer, pH 7.8, containing human CP4H1 (100 nM), inhibitor (0-500 μM), substrate (dansylGlyProProGlyOEt, 500 μM), FeSO4 (50 μM), BSA (1 mg/mL), catalase (0.1 mg/mL), sodium ascorbate (2 mM), DTT (100 μM), and α-ketoglutarate (100 μM). Reactions were pre-incubated with or without inhibitor for 2 min at 30° C., after which the reaction was initiated by the addition of α-ketoglutarate. After 15 min, reactions were quenched by boiling for 45 s and centrifuged at 10,000 g. The supernatant (20-50 μL) was injected into a Nucleodur® C18 Gravity reversed-phase column (4.6×250 mm, 5 μm particle size) from Macherey-Nagel (Bethlehem, Pa.). The column was eluted at 1 mL/min with a gradient (20 min) of aqueous acetonitrile (20-45% v/v) containing 0.1% v/v TFA. The absorbance of the eluent was monitored at 289 nm. All assays were performed in triplicate. Data are reported as activity relative to control reactions lacking inhibitor, where catalytic activity is determined from the percent conversion of substrate to product. Dose-response curves were generated for each inhibitor by plotting the relative activity versus the log of the inhibitor concentration. IC50-values for each inhibitor were interpolated from the data by non-linear regression using the sigmoidal dose-response function available in Prism.

[2] = Estimate of pKa by potentiometric titration; format: physicochemical; details: water; conjugate acid, estimated by titration of the entire compound
Procedure: The pKa value of biheteroaryl compounds was estimated with potentiometric titration. Compounds (5-10 mM) were dissolved in water and the pH was adjusted to ˜12 by adding 10 M NaOH. The pH of the solution was recorded with an Accumet™ XL500 pH meter equipped with an Orion 912600® pH electrode from Thermo Fisher Scientific while titrating the solution with HCl (1 M or […], as necessary) until a pH value of ˜1.75 was achieved. Titration curves were prepared by plotting the solution pH versus the volume of 1 M HCl added, and pKa values were estimated from derivative plots of the titration curves using Prism software.

[3] = conjugate acid of pyridine (bipy) or the nonpyridyl ring; cited from earlier work
[4] = Assay of Fe(II)-affinity for biheteroaryl ligands (Fe20-EC50 titration, spectrophotometry); format: physicochemical
Procedure: A library of biheteroaryl compounds (FIG. 2) was prepared and evaluated them as iron chelators in vitro. The library was assembled either from commercial vendors (pypyr and pyim) or by synthesis using palladium-catalyzed cross-coupling reactions (pypyraz, pypyrid, pyox, and pythi). To evaluate the iron affinity of these compounds in vitro, titration experiments were performed to determine the half-maximal concentration required to form a complex with 20 μM Fe(II) at pH 7.0.
The affinity of biheteroaryl ligands for Fe(II) was determined comparatively by measuring the half-maximal concentration (EC50) required for binding 20 μM Fe(II) (Fe20-EC50) in sodium phosphate buffer at pH 7. Stock solutions of ligands were prepared in either water for high affinity ligands (typically Fe20-EC50<1 mM) or DMSO for low affinity ligands (typically Fe20-EC50>1000 μM). Stock solutions of FeSO4 were prepared in H2O and used within 3 hours of preparation. […] For high affinity ligands, solutions were allowed to equilibrate for 15 min, after which the absorbance was recorded at the λmax for the complex under study. For most low affinity ligands, the corresponding Fe(II) complexes were unstable and observed to dissociate over time. Therefore, the absorbance value was determined within 30 s of mixing, where the absorbance was measured at the λmax for the complex under study. Complexes with pyox were not observed under these conditions. Absorbance values were corrected by subtracting the absorbance value in the absence of ligand. Dose-response curves were generated for each ligand by plotting the absorbance versus the log of the ligand concentration. Fe20-EC50 values for each ligand were interpolated from the dose-response curves by non-linear regression using the sigmoidal dose-response function in Prism. All experiments were performed in triplicate.

[5] = system: HEK293T cells; assay: Effect on iron metabolism (immunoblots for ferritin, TfR, HIF-1α) in HEK293T cells; format: cell-based, human; details: for Level of TFR, HIF-1α, or ferritin: HEK cells, diethyl pyimDC at low levels; for Iron deficient phenotype: HEKs, 100 μM, details in Vasta et al. 2015
Procedure: (§1) MDA-MB-231 or HEK293T cells were plated at 50,000 cells/well into 12-well plates and grown to confluence (˜24 h) as described in Section X. The cells were washed, and the medium was replaced with 1.0 mL of serum-free medium. Stock solutions of all test compounds were prepared at 100× in DMSO and added to a final concentration of 1× (0.1-0.5 mM). After addition of the test compound or DMSO vehicle, cells were incubated for 24 h. The cells were then washed with 100 μL MPER solution from Thermo Fisher Scientific (Waltham, Mass.) and collected. Protein concentrations were determined by BCA assay (Thermo Fisher Scientific), and samples corresponding to 40 μg total protein were analyzed by immunoblot.
(§2) For all immunoblot analyses, protein samples where boiled in SDS-PAGE buffer, separated by electrophoresis through a Tris-glycine SDS-PAGE gel from Bio-Rad Laboratories (Hercules, Calif.), and subsequently transferred to a PVDF membrane for immunoblotting. All primary antibodies were used at the working dilution specified by the manufacturer. Primary antibodies were visualized using a complementary secondary antibody fused to horseradish peroxidase (HRP), with detection of HRP by chemiluminescence, imaging using an ImageQuant LAS 4000 (GE Healthcare), and quantification by densitometry (ImageJ software). The anti-rabbit antibody from Promega and the anti-mouse antibody from Abbiotec (San Diego, Calif.) were used at the working dilution specified by the manufacturer.
(§3) For investigations of iron metabolism, protein samples (40 μg) were separated by SDS-PAGE through a 12% w/v acrylamide gel, and blots were probed with primary antibodies to human ferritin (rabbit monoclonal) from Abcam (Cambridge, Mass.), human transferrin receptor (mouse monoclonal) from Invitrogen, human HIF-1α (mouse monoclonal) from BD Biosciences, and human β-actin (rabbit monoclonal) from Cell Signaling Technology (Danvers, Mass.). Quantifications were normalized to the signal from β-actin, after which treated samples were compared to vehicle-treated controls.

[6] = system: MDA-MB-231 breast cancer cells; assay: Effect on iron metabolism (immunoblots for ferritin, TfR, HIF-1α) in MDA-MB-231 cells; details: for Iron deficient phenotype: MDA-MB-231 (231s), 100 μM, details in Vasta et al. 2015; for Concentration at which no iron-deficient phenotype is observed / Iron-deficiency phenotype of treated cells: MDA-MB-231, 24 h; for Iron-deficiency phenotype of treated cells: EDHB 500 μM, diethyl pythiDC up to 500 μM
Procedure: as §1, §2, §3

[7] = system: MDA-MB-231 cells; assay: Cytotoxicity assay (MTS); format: cell-based; details: MDA-MB-231, 24 h; higher than aqueous solubility limit
Procedure: The toxicity of esterified biheteroaryl compounds for human breast cancer cells was evaluated with the CellTiter 96® AQueous One Solution Cell Proliferation Assay (MTS) from Promega (Madison, Wis.). Briefly, MDA-MB-231 cells grown as described in Section X were plated at a concentration of 5,000 cells/well in a clear 96-well plate. The cells were allowed to adhere for 4 h, after which the medium was removed and discarded. Fresh medium was added and the cells were treated with varying concentrations of the test compound at 37° C. for 24 h. The medium was removed, and cells were washed with Dulbecco's PBS. The MTS reagent was added at a ratio of 1:5, and the cells were incubated at 37° C. for 2 h before measuring the absorbance at 490 nm. The average absorbance was measured in triplicate for each concentration tested, and the entire experiment was repeated in duplicate. The percentage of viable cells was determined by normalizing to a PBS control (100% viable), and a H2O2 control (0% viable). For all of the compounds tested, the LD50-value could not be measured due to its being higher than the aqueous solubility limit: diethyl bipy55′DC, LD50>100 μM; diethyl pyimDC, LD50>1000 μM; diethyl pythiDC, LD50>500 μM.

[8] = system: MDA-MB-231 cells; assay: Effect on secretion of type I collagen into conditioned media; format: cell-based, human; details: for Efficacy on collagen secretion compared with diethyl bipy55′DC: MDA-MB-231; for Level of secreted type I collagen: MDA-MB-231, 48 h, conditioned media
Procedure: For investigations of collagen secretion, protein samples were separated by SDS-PAGE through a 7.5% w/v acrylamide gel. Blots were first stained for total protein using Ponceau S, after which they were probed with a primary antibody to human type-I collagen (α1) (rabbit polyclonal) from Novus Biologicals (Littleton, Colo.).
After the addition of a test compound or vehicle (DMSO), cells were incubated for 48 h, after which 1.0 mL of conditioned medium was removed and added to 4.0 mL of chilled acetone (−20° C.). The resultant mixtures were incubated for 3 h at −20° C., after which the precipitated protein was pelleted by centrifugation at 10,000 g for 30 min. The supernatants were discarded and the pellets dried briefly in a fume hood. Pellets were stored at −20° C. prior to analysis with an immunoblot.

[9] = system: P4HA1; assay: Effect on P4HA1 levels (immunoblot); format: cell-based, human; details: MDA-MB-231
Procedure: For investigations of P4HA1 levels, protein samples were treated and quantified as described above for iron metabolism except that the blots were probed with primary antibodies to human P4HA1 (rabbit polyclonal) from Thermo Fisher Scientific and human β-actin.

[10] = system: IRPs; assay: Electrophoretic mobility shift assay for IRE-binding by IRPs from treated cells; format: cell-based, human; details: treated MDA-MB-231 cells, 24 h, radiolabeled RNA ligand
Procedure: The resultant pellets (˜50 μL) were washed with PBS and then lysed using a protocol described previously.^41 Briefly, cell pellets were resuspended in 200 μL of cell lysis buffer, which was 20 mM Hepes-HCl buffer, pH 7.4, containing sodium pyrophosphate (10 mM), sodium fluoride (50 mM), β-glycerophosphate (50 mM), EDTA (5 mM), GTP (1 mM), sodium orthovanadate (1 mM), benzamidine hydrochloride (2 mM), Nonidet NP-40 (0.5% v/v), p-nitrophenyl p′-guanidinobenzoate-HCl (25 μg/mL), DTT (1 mM), leupeptin (40 μg/mL), pepstatin (4 μg/mL), SBTI (100 μg/mL), MG132 (10 μM), PMSF (200 μM), and BHT (5 μg/mL) by vortexing and lysed on ice by vortexing every few min. After 15 min, the lysates were centrifuged at 14,000 rpm and the supernatants aliquoted and stored at −80° C. until analysis by an electrophoretic mobility shift assay (EMSA).
EMSAs were performed and quantified essentially as described previously.^42 Briefly [^32P]-L-ferritin IRE (1 nM RNA, specific radioactivity ˜7,000 dpm/fmol) was incubated with lysate protein (2.5 μg as determined by the Bradford assay) in binding buffer for 10 min on ice. Heparin was added (to 0.5 mg/mL), and the reaction mixture was incubated for an additional 5 min on ice before separating bound and free RNA on a nondenaturing polyacrylamide gel at ambient temperature.

[11] = titration of 20 μM FeSO4, pH 7, mean (±SE) of three replicates

T1 sequence (P13674 18-534): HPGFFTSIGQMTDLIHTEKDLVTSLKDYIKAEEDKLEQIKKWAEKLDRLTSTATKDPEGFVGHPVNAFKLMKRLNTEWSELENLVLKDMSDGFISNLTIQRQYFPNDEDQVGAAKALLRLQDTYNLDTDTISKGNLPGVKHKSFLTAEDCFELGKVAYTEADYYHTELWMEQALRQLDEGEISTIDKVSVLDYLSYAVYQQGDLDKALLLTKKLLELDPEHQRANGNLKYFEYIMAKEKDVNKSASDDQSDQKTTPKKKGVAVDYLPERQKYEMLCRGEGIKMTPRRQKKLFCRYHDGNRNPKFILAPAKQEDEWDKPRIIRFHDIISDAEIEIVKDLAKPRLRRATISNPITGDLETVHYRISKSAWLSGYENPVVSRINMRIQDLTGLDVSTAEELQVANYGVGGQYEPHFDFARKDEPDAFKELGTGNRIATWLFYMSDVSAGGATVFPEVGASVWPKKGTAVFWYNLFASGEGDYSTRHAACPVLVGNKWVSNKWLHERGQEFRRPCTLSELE
T1 sequence (P07237 18-508 partner): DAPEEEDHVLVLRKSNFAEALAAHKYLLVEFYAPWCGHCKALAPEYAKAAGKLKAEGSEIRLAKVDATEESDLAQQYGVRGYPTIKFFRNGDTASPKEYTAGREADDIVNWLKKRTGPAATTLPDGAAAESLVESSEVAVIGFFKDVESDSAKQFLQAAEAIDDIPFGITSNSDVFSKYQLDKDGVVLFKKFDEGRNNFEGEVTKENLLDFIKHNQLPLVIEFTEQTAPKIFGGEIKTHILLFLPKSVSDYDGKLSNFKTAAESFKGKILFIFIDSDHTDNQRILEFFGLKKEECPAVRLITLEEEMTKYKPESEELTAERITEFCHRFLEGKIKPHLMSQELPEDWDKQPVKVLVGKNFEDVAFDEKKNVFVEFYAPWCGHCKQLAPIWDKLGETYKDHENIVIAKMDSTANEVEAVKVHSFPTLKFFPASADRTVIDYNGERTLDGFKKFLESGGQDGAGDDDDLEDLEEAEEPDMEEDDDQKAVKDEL

## O=C(O)c1ccc(-c2cc(C(=O)O)[nH]n2)nc1 [pypyrDC, 2-(5-Carboxy-1H-pyrazol-3-yl)pyridine-5-carboxylic Acid]
[1]
  Inhibition of catalytic activity of human CP4H1 in initial screen: modest activation

## c1ccc(-c2cnccn2)nc1 [pypyraz, 2-(Pyridin-2-yl)pyrazine]
[2]
  pKa: < 3
[3]
  Heteroaryl pKa (ref.): 0.8 (50)
[4]; [11]
  EC50: 400 ± 7 µM

## c1ccc(-c2ncco2)nc1 [pyox, 2-(Oxazol-2-yl)pyridine]
[2]
  pKa: < 3
[3]
  Heteroaryl pKa (ref.): 0.8 (54)
[4]; [11]
  EC50: > 18000 µM

## c1ccc(-c2ncc[nH]2)nc1 [pyim, 2-(1H-Imidazol-2-yl)pyridine, reference compound]
[2]
  pKa: 5.4
[3]
  Heteroaryl pKa (ref.): 7.1 (51)
[5]
  Level of TFR, HIF-1α, or ferritin: did not affect
[4]; [11]
  EC50: 900 ± 30 µM

## Cn1c(C(=O)O)cnc1-c1ccc(C(=O)O)cn1 [NMe-pyimDC, 2-(5-Carboxy-1-methyl-1H-imidazol-2-yl)pyridine-5-carboxylic Acid]
[1]
  Inhibition of catalytic activity of human CP4H1 in initial screen: potency is less than that of pyimDC

## CCOC(=O)c1ccc(-c2cc(C(=O)OCC)ccn2)nc1 [diethyl bipy45′DC, Diethyl 2,2′-bipyridine-4,5′-dicarboxylate, reference compound]
[5]
  Iron deficient phenotype: did not cause iron deficiency
[6]
  Iron deficient phenotype: did not cause iron deficiency

## CCOC(=O)c1ccc(-c2ncc(C(=O)OCC)s2)nc1 [diethyl pythiDC, Ethyl 2-(5-ethoxycarbonylthiazol-2-yl)pyridine-5-carboxylate]
[7]
  LD50: > 500 µM
[5]
  Level of TFR, HIF-1α, or ferritin: did not affect
[8]
  Efficacy on collagen secretion compared with diethyl bipy55′DC: indistinguishable
  Level of secreted type I collagen: reduced the level of secreted collagen significantly
[9]
  Levels of human CP4H1 (P4HA1) itself: did not appear to affect
[6]
  Concentration at which no iron-deficient phenotype is observed: ≤ 500 µM
  Iron-deficiency phenotype of treated cells: normal
[10]
  RNA binding by IRPs: did not

## c1ccc(-c2nccs2)nc1 [pythi, 2-(Thiazol-2-yl)pyridine]
[2]
  pKa: < 3
[3]
  Heteroaryl pKa (ref.): 2.5 (53)
[5]
  Level of TFR, HIF-1α, or ferritin: did not affect
[4]; [11]
  EC50: 5100 ± 100 µM

## CCOC(=O)c1ccnc(-c2cc(C(=O)OCC)ccn2)c1 [diethyl bipy44′DC, reference compound]
[5]
  Iron deficient phenotype: distinct iron deficient phenotype
[6]
  Iron deficient phenotype: distinct iron deficient phenotype

## O=C(O)c1ccc(-c2ccc(C(=O)O)nn2)nc1 [pypyridDC, 6-(5-Carboxypyridin-2-yl)pyridazine-3-carboxylic Acid]
[1]
  Inhibition of catalytic activity of human CP4H1 in initial screen: modest activation

## CCOC(=O)c1ccc(-c2ncc(C(=O)OCC)[nH]2)nc1 [diethyl pyimDC, Ethyl 2-(5-ethoxycarbonyl-1H-imidazol-2-yl)pyridine-5-carboxylate]
[7]
  LD50: > 1000 µM
[5]
  Level of TFR, HIF-1α, or ferritin: did not affect
[8]
  Efficacy on collagen secretion compared with diethyl bipy55′DC: indistinguishable
  Level of secreted type I collagen: reduced the level of secreted collagen significantly
[9]
  Levels of human CP4H1 (P4HA1) itself: did not appear to affect
[6]; MDA-MB-231
  Accumulation of TFR or HIF-1α: without an associated accumulation
[6]
  Concentration at which no iron-deficient phenotype is observed: ≤ 56 µM
  Iron-deficiency phenotype of treated cells: intermediate phenotype
[6]; MDA-MB-231, above 56 μM
  Ferritin levels: significant decrease
[4]; Fe(II) 20 μM, highest concentration tested, not saturated
  EC50: > 600 µM
[10]
  RNA binding by IRPs: did not

## c1ccc(-c2cc[nH]n2)nc1 [pypyr, 2-(1H-pyrazol-3-yl)pyridine, reference compound]
[2]
  pKa: 4.1
[3]
  Heteroaryl pKa (ref.): 2.5 (52)
[4]; [11]
  EC50: 2250 ± 100 µM

## CCOC(=O)c1ccc(-c2ccc(C(=O)OCC)cn2)nc1 [diethyl bipy55′DC, Diethyl 2,2′-bipyridine-5,5′-dicarboxylate, reference compound]
[7]
  LD50: > 100 µM
[5]
  Iron deficient phenotype: did not cause iron deficiency
[6]
  Iron deficient phenotype: did not cause iron deficiency

## c1ccc(-c2cccnn2)nc1 [pypyrid]
[2]
  pKa: < 3
[3]
  Heteroaryl pKa (ref.): 2.3 (49)
[4]; [11]
  EC50: 124 ± 1 µM
